Calls of active or inactive are those of the source. No cut-off for these calls is given here.
Columns and labels:
MIA PaCa-2 [1] = assay: Antitumor activity against human MIA PaCa-2 cells xenografted in athymic BALB/c-nu mouse assessed as fold change in lysine level in tumor at 10 mg/kg/day, ip administered five times per week for 4 weeks by LC-MS analysis; format: functional
MIA PaCa-2 [2] = assay: Antimetastatic activity in human MIA PaCa-2 cells in DMEM media assessed as inhibition of colony formation at 10 uM incubated for 24 hrs followed by replacement with fresh medium and measured after 10 days by crystal violet staining-based assay relative to control; format: functional
MIA PaCa-2 [3] = assay: Antitumor activity against human MIA PaCa-2 cells xenografted in athymic BALB/c-nu mouse assessed as fold change in 4-(methylthio)-2-oxobutyricacid level in tumor at 10 mg/kg/day, ip administered five times per week for 4 weeks by LC-MS analysis; format: functional
MIA PaCa-2 [4] = assay: Antitumor activity against human MIA PaCa-2 cells xenografted in athymic BALB/c-nu mouse assessed as fold change in proline level in tumor at 10 mg/kg/day, ip administered five times per week for 4 weeks by LC-MS analysis; format: functional
MIA PaCa-2 [5] = assay: Preferential cytotoxicity against human MIA PaCa-2 cells in nutrient-deprived medium assessed as alteration in cell morphology by measuring rupture of cell membrane at 5 uM measured after 24 hrs by acridine orange and ethidium bromide dual fluorescent staining based imaging analysis; format: functional
MIA PaCa-2 [6] = assay: Antitumor activity against human MIA PaCa-2 cells xenografted in athymic BALB/c-nu mouse assessed as fold change in arabinosyl hypoxanthine level in tumor at 10 mg/kg/day, ip administered five times per week for 4 weeks by LC-MS analysis; format: functional
MIA PaCa-2 [7] = assay: Antitumor activity against human MIA PaCa-2 cells xenografted in athymic BALB/c-nu mouse assessed as fold change in benzoic acid level in tumor at 10 mg/kg/day, ip administered five times per week for 4 weeks by LC-MS analysis; format: functional
MIA PaCa-2 [8] = assay: Antitumor activity against human MIA PaCa-2 cells xenografted in athymic BALB/c-nu mouse assessed as fold change in 1-aminocyclopropanecarboxylicacid level in tumor at 2 mg/kg/day, ip administered five times per week for 4 weeks by LC-MS analysis; format: functional
[9] = Toxicity in athymic BALB/c-nu mouse xenografted with human MIA PaCa-2 cells assessed as animal death at 2 to 10 mg/kg/day, ip administered five times per week for 4 weeks; format: organism-based; settings: in vivo, 672 h, dose 2-10 mg/kg/day

COc1cc(O)c(C(=O)[C@@H]2CC=C(CCC=C(C)C)C[C@H]2c2ccccc2)c(O)c1
fold change (FC) (MIA PaCa-2 [1]): 0.29 | inhibition at 10 µM (MIA PaCa-2 [2]): 88% | fold change (FC) (MIA PaCa-2 [3]): 0.41 | fold change (FC) (MIA PaCa-2 [4]): 0.53 | Activity (MIA PaCa-2 [5]): Active | fold change (FC) (MIA PaCa-2 [6]): 0.21 | fold change (FC) (MIA PaCa-2 [7]): 0.43 | fold change (FC) (MIA PaCa-2 [8]): 0.8 | Activity [9]: Non-Toxic

From ChEMBL document CHEMBL5321213, “Nicolaioidesin C: An Antiausterity Agent Shows Promising Antitumor Activity in a Pancreatic Cancer Xenograft Mouse Model” (J Nat Prod, 2023)
